Patent publication US4950602A, “Inhibition of lactate production by pyruvate adducts” (Cornell Research Foundation, Inc., priority 1987, dated 1990)
Like-named read-outs stand apart in the source and are kept apart here. Blank lines part the entries; values can stand above or below the compound they belong to.

Experiments:
lactate dehydrogenase = experiment: Reactive α-keto and α-hydroxy acids as inhibitors of lactate dehydrogenase; format: biochemical
Experimental: (§1) Each of the enzymes was assayed by procedures in which change of absorbance at 340 nm due to NADH was followed essentially as described by Bergmeyer (1974, Methods of Enzymatic Analysis, 2nd Eng. Ed., Verlag Chemie Weinheim Academic Press, N.Y.) with the following exceptions. Phosphofructokinase was assayed according to the method of Lai et al (1984, J. Neurochem., 42:438-446). NAD^+ -linked isocitrate dehydrogenase was assayed as described by Lai and Clark (1976, Biochem. J., 154:423-432). Pyruvate and α-ketoglutarate dehydrogenase complexes were respectively assayed according to the methods of Lai and Sheu (1985, J. Neurochem., 45:1861-1868) and Lai and Cooper (1986) (J. Neurochem, 47:1376-1386).

[1] = test system: rat brain lactate dehydrogenase; experiment: Inhibition of rat brain lactate dehydrogenase (rat brain homogenate); format: biochemical; details: rat brain homogenate, 0.24 mM pyruvate, 0.1 mM NADH, pH 7.2, 25° C.
Experimental: as §1
(§2) The reaction mixture (1 ml) contained 0.24 mM sodium pyruvate, 0.1 mM
(§3) NADH, 100 mM potassium phosphate buffer (pH 7.2) and either purified
(§4) bovine heart lactate dehydrogenase (0.01 U) or rat brain homogenate
(§5) containing ~0.02 U of lactate dehydrogenase activity; 25° C.
(§6) Since APADpyruvate adduct and RAP have a tendency to revert to pyruvate
(§7) they were added to the reaction mixture just prior to addition of enzyme.
(§8) Because the kinetics obtained with tightbinding inhibitors depends on the
(§9) order of addition of substrates and inhibitors the enzyme was always adde
(§10) last. Each value is the average of at least 3 determinations. Each of the […]

[2] = molecular target: T1, beef heart lactate dehydrogenase (Bos taurus, UniProt Q5E9B1); experiment: Inhibition of beef heart lactate dehydrogenase (NADH absorbance at 340 nm); format: biochemical, bovine; details: for Relative Activity (%) Beef Heart: 0.24 mM pyruvate, 0.1 mM NADH, pH 7.2, 25° C.
T1 construct: purchased Worthington Biochemical Corporation (Freehold, N.J.); host or cells: beef heart
T1 sequence (Q5E9B1 whole entry): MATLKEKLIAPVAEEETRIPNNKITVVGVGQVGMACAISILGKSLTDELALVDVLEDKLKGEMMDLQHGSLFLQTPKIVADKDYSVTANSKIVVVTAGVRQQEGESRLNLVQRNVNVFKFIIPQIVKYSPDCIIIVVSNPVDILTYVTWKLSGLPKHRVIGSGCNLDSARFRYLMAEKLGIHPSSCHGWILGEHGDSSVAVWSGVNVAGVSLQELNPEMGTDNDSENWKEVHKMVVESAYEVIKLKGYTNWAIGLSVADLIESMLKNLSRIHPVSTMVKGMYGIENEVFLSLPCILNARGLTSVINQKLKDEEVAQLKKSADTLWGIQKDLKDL
From the text: Enzymes and enzyme assays. Rabbit muscle glyceraldehyde-3-phosphate dehydrogenase (80 U/mg: ammonium sulfate suspension), rabbit muscle glycerol-3-phosphate dehydrogenase (40 U/mg; ammonium sulfate suspension),beef liver glutamate dehydrogenase (120 U/mg: in 50% glycerol), mitochondrial pig heart malate dehydrogenase (1100 U/mg; in 50% glycerol) and yeast hexokinase (140 U/mg; ammonium sulfate suspension) were purchased from Boehringer Mannheim Corp. (Indianapolis). Beef heart lactate dehydrogenase (280 U/mg) was purchased from Worthington Biochemical Corporation (Freehold, N.J.). Porcine heart L-alanine aminotransferase (130 U/mg), rabbit muscle phosphofructokinase (140 U/mg; ammonium sulfate suspension), bovine heart α-ketoglutarate (8 U/mg) and pyruvate (5 U/mg) dehydrogenase complexes, sodium pyruvate, L-methionine-SR-sulfoximine, DL-vinylglycine, NAD^+, NADH and NAD^+ analogues (3-acetylpyridine, thionicotinamide, and 3-pyridinealdehyde adenine dinucleotides) were purchased from Sigma Chemical Company (St. Louis, Mo.).
as §1, §2, §3, §4, §5, §6, §7, §8, §9, §10

[3] = molecular target: horse liver alcohol dehydrogenase (Equus caballus, UniProt P00327); details: concentration that inhibited chicken H4 lactate dehydrogenase by 59%; Everse et al 1971; cited from earlier work
Sequence of horse liver alcohol dehydrogenase (P00327 whole entry): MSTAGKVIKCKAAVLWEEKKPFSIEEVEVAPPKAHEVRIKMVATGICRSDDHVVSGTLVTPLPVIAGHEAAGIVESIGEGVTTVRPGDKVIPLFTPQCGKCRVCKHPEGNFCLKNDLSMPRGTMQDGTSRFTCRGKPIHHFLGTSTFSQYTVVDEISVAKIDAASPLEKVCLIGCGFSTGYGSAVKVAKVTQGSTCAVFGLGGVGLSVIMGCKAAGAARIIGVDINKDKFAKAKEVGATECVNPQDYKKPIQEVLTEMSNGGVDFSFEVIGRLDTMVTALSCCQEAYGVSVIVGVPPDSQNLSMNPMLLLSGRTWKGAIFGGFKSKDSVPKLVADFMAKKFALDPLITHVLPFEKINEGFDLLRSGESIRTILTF

[4] = cited from earlier work; for stability in solution: Burgner and Ray 1984
[5] = molecular target: chicken H4 lactate dehydrogenase (Gallus gallus, UniProt P00337); details: concentration not given; Everse et al 1971; cited from earlier work
Sequence of chicken H4 lactate dehydrogenase (P00337 whole entry): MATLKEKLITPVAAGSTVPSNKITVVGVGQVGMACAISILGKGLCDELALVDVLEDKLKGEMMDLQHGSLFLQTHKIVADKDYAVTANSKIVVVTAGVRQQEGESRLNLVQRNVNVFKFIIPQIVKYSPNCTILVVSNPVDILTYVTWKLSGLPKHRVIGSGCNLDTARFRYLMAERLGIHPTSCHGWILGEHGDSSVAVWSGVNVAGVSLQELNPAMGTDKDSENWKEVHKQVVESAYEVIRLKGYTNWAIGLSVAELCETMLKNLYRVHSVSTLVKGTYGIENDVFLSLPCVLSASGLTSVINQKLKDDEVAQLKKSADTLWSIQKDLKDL

[6] = test system: dogfish liver glutamate dehydrogenase; details: concentration that inhibited chicken H4 lactate dehydrogenase by 59%; Everse et al 1971; cited from earlier work
[7] = molecular target: yeast alcohol dehydrogenase (Saccharomyces cerevisiae, UniProt P00330); details: concentration that inhibited chicken H4 lactate dehydrogenase by 59%; Everse et al 1971; cited from earlier work
Sequence of yeast alcohol dehydrogenase (P00330 whole entry): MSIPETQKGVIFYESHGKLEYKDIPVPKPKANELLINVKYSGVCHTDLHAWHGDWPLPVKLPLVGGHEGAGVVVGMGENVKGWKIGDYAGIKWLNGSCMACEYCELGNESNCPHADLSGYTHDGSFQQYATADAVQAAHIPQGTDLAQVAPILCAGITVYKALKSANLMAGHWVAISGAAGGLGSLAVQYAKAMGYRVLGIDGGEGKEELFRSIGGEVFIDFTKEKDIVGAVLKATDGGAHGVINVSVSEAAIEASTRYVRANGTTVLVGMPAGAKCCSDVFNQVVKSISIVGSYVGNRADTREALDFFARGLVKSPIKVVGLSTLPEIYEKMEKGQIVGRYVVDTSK

[8] = molecular target: pig heart mitochondrial malate dehydrogenase (Sus scrofa, UniProt P00346); details: concentration that inhibited chicken H4 lactate dehydrogenase by 59%; Everse et al 1971; cited from earlier work
Sequence of pig heart mitochondrial malate dehydrogenase (P00346 25-338): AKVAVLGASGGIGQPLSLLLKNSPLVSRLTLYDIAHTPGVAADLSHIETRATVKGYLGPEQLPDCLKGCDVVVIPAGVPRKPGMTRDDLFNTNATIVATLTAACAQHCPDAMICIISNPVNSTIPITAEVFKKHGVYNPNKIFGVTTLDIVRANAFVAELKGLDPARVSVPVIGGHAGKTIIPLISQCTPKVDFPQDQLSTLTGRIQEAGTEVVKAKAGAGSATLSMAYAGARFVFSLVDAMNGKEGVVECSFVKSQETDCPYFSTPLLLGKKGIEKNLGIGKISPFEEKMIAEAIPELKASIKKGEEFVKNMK

[9] = molecular target: lactate dehydrogenase (dogfish enzyme) (Squalus acanthias, UniProt P00341); details: Burgner and Ray 1984; cited from earlier work
Sequence of lactate dehydrogenase (dogfish enzyme) (P00341 whole entry): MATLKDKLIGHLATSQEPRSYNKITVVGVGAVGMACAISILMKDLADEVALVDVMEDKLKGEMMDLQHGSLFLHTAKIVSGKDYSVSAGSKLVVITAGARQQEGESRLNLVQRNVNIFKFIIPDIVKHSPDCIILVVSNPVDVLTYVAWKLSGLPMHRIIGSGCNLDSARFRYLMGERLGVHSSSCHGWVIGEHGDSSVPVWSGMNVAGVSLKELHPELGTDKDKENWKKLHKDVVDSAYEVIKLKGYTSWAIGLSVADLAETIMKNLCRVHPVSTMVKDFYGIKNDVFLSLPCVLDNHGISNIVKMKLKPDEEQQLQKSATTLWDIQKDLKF

Compound: CC(=O)C1=CN([C@@H]2O[C@H](COP(=O)(O)OP(=O)(O)OC[C@H]3O[C@@H](n4cnc5c(N)ncnc54)[C@H](O)[C@@H]3O)[C@@H](O)[C@H]2O)C=CC1CC(=O)C(=O)O (stereo partly drawn) [Acetyl analogue, reference compound]
- Ki [9]: 0.1 nM
- Relative Activity (%) Rat Brain ([1]; additive 0.42 μM): 61%
- Relative Activity (%) Rat Brain ([1]; additive 0.84 μM): 30%
- stability in solution ([4]; pH 7.0): reverts to free pyruvate and APAD
- stability in solution ([4]; pH 11.0): relatively stable
- Relative Activity (%) Beef Heart ([2]; additive 0.08 μM): 90%
- Relative Activity (%) Beef Heart ([2]; additive 0.42 μM): 60%
- Relative Activity (%) Beef Heart ([2]; additive 0.84 μM): 21%

Compound: CC=CC(=O)C(=O)O [2-oxo-3-pentenoic acid]
- action on lactate dehydrogenase (lactate dehydrogenase): substrates, not inhibitors

The next lines start with results.

- action on lactate dehydrogenase (lactate dehydrogenase): substrates, not inhibitors
Compound: Vinylglycolate

- Relative Activity (%) Rat Brain ([1]; additive 1.4 μM): 33%
- Relative Activity (%) Beef Heart ([2]; additive 0.7 μM): 38%
- Relative Activity (%) Beef Heart ([2]; additive 1.4 μM): 17%
Compound: NC(=S)C1=CN([C@@H]2O[C@H](COP(=O)(O)OP(=O)(O)OC[C@H]3O[C@@H](n4cnc5c(N)ncnc54)[C@H](O)[C@@H]3O)[C@@H](O)[C@H]2O)C=CC1CC(=O)C(=O)O (stereo partly drawn) [Thio analogue]

- Relative Activity (%) Rat Brain ([1]; additive 34 μM): 48%
- Relative Activity (%) Beef Heart ([2]; additive 34 μM): 90%
- Relative Activity (%) Beef Heart ([2]; additive 68 μM): 62%
- Relative Activity (%) Beef Heart ([2]; additive 136 μM): 38%
- Ki ([2]; calculated from Table 1 data with Km for NADH 2.5 μM, standard equation for a competitive inhibitor, read-out: Ki): 2600 nM
Compound: NC(=O)C1=CN([C@@H]2O[C@H](COP(=O)(O)OP(=O)(O)OC[C@H]3O[C@@H](n4cnc5c(N)ncnc54)[C@H](O)[C@@H]3O)[C@@H](O)[C@H]2O)C=CC1CC(=O)C(=O)O (stereo partly drawn) [NAD-pyruvate adduct]
- effect on horse liver alcohol dehydrogenase [3]: little effect
- stability (loss of absorbance at 340 nm) ([4]; Everse et al 1971): relatively unstable and easily oxidized
- inhibition of chicken H4 lactate dehydrogenase [5]: 59%
- effect on dogfish liver glutamate dehydrogenase [6]: little effect
- effect on yeast alcohol dehydrogenase [7]: little effect
- effect on pig heart mitochondrial malate dehydrogenase [8]: little effect
